Laboratory results reported in paper PMC9933483, “Tail-Approach-Based Design and Synthesis of Coumarin-Monoterpenes as Carbonic Anhydrase Inhibitors and Anticancer Agents” (ACS Omega, 2023).

Tests used:
hCA IX = hCA IX (Homo sapiens, UniProt Q16790); experiment: biochemical
HT-29 cell line = experiment: Cell cytotoxicity, MTT assay; format: cell-based, human; settings: Homo sapiens, HT-29; MTT, 24 h
HEK293T cell line = experiment: Cell cytotoxicity, MTT assay; format: cell-based; settings: Homo sapiens, HEK-293T, 24 h, healthy cell line
PC-3 cell line = experiment: Cell cytotoxicity, MTT assay; format: cell-based; settings: Homo sapiens, 24 h
MCF-7 cell line = experiment: Cell cytotoxicity, MTT assay; format: cell-based, human; settings: Homo sapiens, MCF7, 24 h
CA IX = experiment: Western blotting of CA IX protein expression in MCF-7 cells; format: cell-based, human; settings: western blot, hypoxia (200 μM CoCl2), 24 h, three doses
Procedure: (§1) CA IX and CA XII protein expressions were evaluated in treated and control HT-29 and MCF7 cells after hypoxia induction. Cells were seeded in a 6-well plate in DMEM/F12 (normoxic cells) or DMEM/F12 containing 200 μM CoCl2 (hypoxic and treated cells) in order to create hypoxia.[25] HT29 cells were treated with 14 (40, 10, and 1.25 μM), 23 (80, 20, and 1.25 μM), and 66 (80, 20, and 1.25 μM), and MCF7 cells were treated with 14 (40, 10, and 1.25 μM), 23 (80, 20, and 1.25 μM), and 63 (80, 20, and 1.25 μM) for 24 h at three different doses. After the treatment period, cells were washed with cold PBS and homogenized into Ripa cell lysis buffer (Santa Cruz, USA). Samples were prepared, electrophoresed, and transferred according to the literature.[25] The membranes were blocked in 5% fat-free milk (w/v) for 1 h at RT, incubated with the corresponding antibody at 4 °C overnight, and then incubated with the horseradish peroxidase (HRP)-labeled secondary antibody for 1 h at RT. The following antibodies were used: anti-CA IX (ab107257, Abcam), anti-CA XII (sc-374314, Santa Cruz), and anti-GAPDH (A19056, Abclonal). Finally, the membranes were stained with ECL reagents (LumiGLO, CST, USA), and then, imaging was performed with the Bio-Rad Chemidoc Imaging System. The bands were calculated with the Image Lab (Bio-Rad, USA) and analyzed with Graphpad Prism 9.00 (San Diego, CA, USA).

CA XII = experiment: Western blotting of CA XII protein expression in MCF-7 cells; format: cell-based, human; settings: western blot, hypoxia (200 μM CoCl2), 24 h, three doses
Procedure: as §1

Row | Compound | Ki (hCA IX) [µM] | melting point [°C] | IC50 (HT-29 cell line) [µM] | IC50 (HEK293T cell line) [µM] | IC50 (PC-3 cell line) [µM] | IC50 (MCF-7 cell line) [µM] | CA IX expression in MCF-7 cells (CA IX) | CA XII expression in MCF-7 cells (CA XII)
1 | Cc1ccc(C(C)C)c(OCc2cn(CCCCCCCCCCOc3ccc4ccc(=O)oc4c3)nn2)c1 [Compound 18, 7-((10-(4-((2-Isopropyl-5-methylphenoxy)methyl)-1H-1,2,3-triazol-1-yl)decyl)oxy)-2H-chromen-2-one] | 0.268 | 72 to 73 | 41.5 ± 14.2 |  |  |  |  | 
2 | Cc1ccc(C(C)C)c(OCc2cn(CCCCCCCCCCCCOc3ccc4ccc(=O)oc4c3)nn2)c1 [Compound 19, 7-((12-(4-((2-Isopropyl-5-methylphenoxy)methyl)-1H-1,2,3-triazol-1-yl)dodecyl)oxy)-2H-chromen-2-one] | 0.0218 | 68 to 69 | 37.6 ± 11.7 |  |  |  |  | 
3 | Cc1ccc(C(C)C)cc1OCc1cn(CCCCCCCOc2ccc3ccc(=O)oc3c2)nn1 [Compound 24, 7-((7-(4-((5-Isopropyl-2-methylphenoxy)methyl)-1H-1,2,3-triazol-1-yl)heptyl)oxy)-2H-chromen-2-one] | 0.0327 | 83 to 84 | 56.9 ± 18.2 | 134 ± 60.4 | > 200 | > 200 |  | 
4 | Cc1ccc(C(C)C)cc1OCc1cn(CCCCCCCCCOc2ccc3ccc(=O)oc3c2)nn1 [Compound 25, 7-((9-(4-((5-Isopropyl-2-methylphenoxy)methyl)-1H-1,2,3-triazol-1-yl)nonyl)oxy)-2H-chromen-2-one] | 0.0897 | 69 to 70 | 47.6 ± 13.8 |  |  |  |  | 
5 | Cc1ccc(C(C)C)cc1OCc1cn(CCCCCCCCCCOc2ccc3ccc(=O)oc3c2)nn1 [Compound 26, 7-((10-(4-((5-Isopropyl-2-methylphenoxy)methyl)-1H-1,2,3-triazol-1-yl)decyl)oxy)-2H-chromen-2-one] | 0.258 | 73 to 74 | 40.8 ± 10.2 |  |  |  |  | 
6 | Cc1ccc(C(C)C)cc1OCc1cn(CCCCCCCCCCCCOc2ccc3ccc(=O)oc3c2)nn1 [Compound 27, 7-((12-(4-((5-Isopropyl-2-methylphenoxy)methyl)-1H-1,2,3-triazol-1-yl)dodecyl)oxy)-2H-chromen-2-one] | 0.0304 | 80 to 81 | 29.6 ± 6.47 |  |  |  |  | 
7 | C=CCc1ccc(OCc2cn(CCCCOc3ccc4ccc(=O)oc4c3)nn2)c(OC)c1 [Compound 30, 7-(4-(4-((4-Allyl-2-methoxyphenoxy)methyl)-1H-1,2,3-triazol-1-yl)butoxy)-2H-chromen-2-one] |  | 73 to 74 | 41.8 ± 13.5 | 26.8 ± 2.44 | 57.6 ± 23.9 | 51.2 ± 27 |  | 
8 | CC1CCC(C(C)C)C(OCc2cn(CCCOc3ccc4ccc(=O)oc4c3)nn2)C1 (centres unmarked) [Compound 37, 7-(3-(4-(((2-Isopropyl-5-methylcyclohexyl)oxy)methyl)-1H-1,2,3-triazol-1-yl)propoxy)-2H-chromen-2-one] |  | 78 to 79 | 39.9 ± 11.8 | 24.2 ± 3.2 | 29.1 ± 6.83 | 18.4 ± 3.81 |  | 
9 | CC1CCC(C(C)C)C(OCc2cn(CCCCOc3ccc4ccc(=O)oc4c3)nn2)C1 (centres unmarked) [Compound 38, 7-(4-(4-(((2-Isopropyl-5-methylcyclohexyl)oxy)methyl)-1H-1,2,3-triazol-1-yl)butoxy)-2H-chromen-2-one] | 0.3 | 75 to 76 | 37.2 ± 11.6 |  |  |  |  | 
10 | CC1CCC(C(C)C)C(OCc2cn(CCCCCCCCCCCCOc3ccc4ccc(=O)oc4c3)nn2)C1 (centres unmarked) [Compound 43, 7-((12-(4-(((2-Isopropyl-5-methylcyclohexyl)oxy)methyl)-1H-1,2,3-triazol-1-yl)dodecyl)oxy)-2H-chromen-2-one] | 0.0025 | 59 to 60 | 27.2 ± 6.18 | 50.6 ± 8.63 | 32.3 ± 9.99 | 77.2 ± 34.8 |  | 
11 | Cc1ccc(C(C)C)cc1OCCCCOc1ccc2ccc(=O)oc2c1 [Compound 54, 7-(4-(5-Isopropyl-2-methylphenoxy)butoxy)-2H-chromen-2-one] |  | 74 to 75 | 59.8 ± 6.73 |  |  |  |  | 
12 | C=CCc1ccc(OCCCCCCOc2ccc3ccc(=O)oc3c2)c(OC)c1 [Compound 63, 7-((6-(4-Allyl-2-methoxyphenoxy)hexyl)oxy)-2H-chromen-2-one] |  |  | > 200 | 40.6 ± 12.1 | 36.4 ± 12.3 | 3.91 ± 2.16 | decreased | decreased

Further lines, with some results ahead:

Row | Ki (hCA IX) [µM] | melting point [°C] | Compound | IC50 (HT-29 cell line) [µM] | IC50 (HEK293T cell line) [µM] | IC50 (PC-3 cell line) [µM] | IC50 (MCF-7 cell line) [µM] | CA IX expression in MCF-7 cells (CA IX) | CA XII expression in MCF-7 cells (CA XII)
13 | 0.0319 | 118 to 119 | C=CCc1ccc(OCc2cn(CCOc3ccc4ccc(=O)oc4c3)nn2)c(OC)c1 [Compound 28, 7-(2-(4-((4-Allyl-2-methoxyphenoxy)methyl)-1H-1,2,3-triazol-1-yl)ethoxy)-2H-chromen-2-one] | 25.8 ± 8.4 |  |  |  |  | 
14 |  | 88 to 89 | C=CCc1ccc(OCc2cn(CCCOc3ccc4ccc(=O)oc4c3)nn2)c(OC)c1 [Compound 29, 7-(3-(4-((4-Allyl-2-methoxyphenoxy)methyl)-1H-1,2,3-triazol-1-yl)propoxy)-2H-chromen-2-one] | 23.5 ± 7.22 | 34.1 ± 8.6 | 32.4 ± 9.16 | 20.6 ± 6.5 |  | 
15 |  | 101 to 102 | C=CCc1ccc(OCc2cn(CCCCCCCOc3ccc4ccc(=O)oc4c3)nn2)c(OC)c1 [Compound 32, 7-((7-(4-((4-Allyl-2-methoxyphenoxy)methyl)-1H-1,2,3-triazol-1-yl)heptyl)oxy)-2H-chromen-2-one] | 16.3 ± 5.34 | 40.6 ± 13.7 | 36.7 ± 29 | > 200 |  | 
16 | 0.189 | 83 to 84 | C=CCc1ccc(OCc2cn(CCCCCCCCCOc3ccc4ccc(=O)oc4c3)nn2)c(OC)c1 [Compound 33, 7-((9-(4-((4-Allyl-2-methoxyphenoxy)methyl)-1H-1,2,3-triazol-1-yl)nonyl)oxy)-2H-chromen-2-one] | 31.3 ± 10.9 |  |  |  |  | 
17 | 0.0281 | 48 to 49 | C=CCc1ccc(OCc2cn(CCCCCCCCCCOc3ccc4ccc(=O)oc4c3)nn2)c(OC)c1 [Compound 34, 7-((10-(4-((4-Allyl-2-methoxyphenoxy)methyl)-1H-1,2,3-triazol-1-yl)decyl)oxy)-2H-chromen-2-one] | 25.7 ± 8.15 |  |  |  |  | 
18 | 0.0299 | 72 to 74 | C=CCc1ccc(OCc2cn(CCCCCCCCCCCCOc3ccc4ccc(=O)oc4c3)nn2)c(OC)c1 [Compound 35, 7-((12-(4-((4-Allyl-2-methoxyphenoxy)methyl)-1H-1,2,3-triazol-1-yl)dodecyl)oxy)-2H-chromen-2-one] | 23.2 ± 6.94 |  |  |  |  | 
19 |  | 50 to 51 | Cc1ccc(C(C)C)cc1OCCCCCCCCCCOc1ccc2ccc(=O)oc2c1 [Compound 58, 7-((10-(5-Isopropyl-2-methylphenoxy)decyl)oxy)-2H-chromen-2-one] | > 200 |  |  |  |  | 
20 |  | 58 to 59 | Cc1ccc(C(C)C)cc1OCCCCCCCCCCCCOc1ccc2ccc(=O)oc2c1 [Compound 59, 7-((12-(5-Isopropyl-2-methylphenoxy)dodecyl)oxy)-2H-chromen-2-one] | > 200 |  |  |  |  | 
21 | 0.176 | 86 to 87 | C=CCc1ccc(OCCOc2ccc3ccc(=O)oc3c2)c(OC)c1 [Compound 60, 7-(2-(4-Allyl-2-methoxyphenoxy)ethoxy)-2H-chromen-2-one] | > 80 | > 80 | 31.5 ± 8.71 | 18.5 ± 3.59 |  | 
22 |  | 70 to 71 | C=CCc1ccc(OCCCOc2ccc3ccc(=O)oc3c2)c(OC)c1 [Compound 61, 7-(3-(4-Allyl-2-methoxyphenoxy)propoxy)-2H-chromen-2-one] | > 80 |  |  |  |  | 
23 |  | 62 to 63 | C=CCc1ccc(OCCCCCCCOc2ccc3ccc(=O)oc3c2)c(OC)c1 [Compound 64, 7-((7-(4-Allyl-2-methoxyphenoxy)heptyl)oxy)-2H-chromen-2-one] | > 80 |  |  |  |  | 
24 |  | 56 to 57 | C=CCc1ccc(OCCCCCCCCCOc2ccc3ccc(=O)oc3c2)c(OC)c1 [Compound 65, 7-((9-(4-Allyl-2-methoxyphenoxy)nonyl)oxy)-2H-chromen-2-one] | 39.4 ± 7.1 |  |  |  |  | 
